Test system: DNA repair protein genes
Experiment: DNA chip mRNA expression in yeast, DNA repair protein genes (Table 3)
Format: cell-based, Saccharomyces cerevisiae S288C
Conditions: incubated two hours, concentrations as in the 1st table
Experimental: Yeast (Saccharomyces cerevisiae S288C (α SUC2mal mel gap2 CUP1)) were incubated at 25° C. on YPD medium (yeast extract 1%, polypepton 2%, glucose 2%). One of toxic chemical substances was added to the cells at logarithmic growth phase, and the cells were further incubated for two hours. Cells were cultured without any chemical substance in the same condition, and were used as control. Concentrations of the chemical substances were defined to inhibit the growth of the yeast but not lead to death.
After completion of the incubation, the culture was centrifuged to collect the cells. To the cells, sodium acetate buffer (50 mM sodium acetate, 10 mM EDTA, 1% SDS) was added, and the mixture was shaken at 65° C. for five minutes, followed by returning to room temperature, and obtaining the supernatant, of which the procedures were repeated two times. To the supernatant, ½ amount of a solution of phenol/chloroform was added, and the mixture was centrifuged to give a supernatant, which was added with an equal amount of chloroform, and the mixture was centrifuged to give a supernatant. To the supernatant, an equal amount of isopropanol containing 0.3 M sodium acetate was added, and the mixture was allowed to stand at room temperature for 30 minutes, after which the mixture was centrifuged to give a sediment of the whole RNAs. Seventy % ethanol was added to the sediment, and the mixture was again centrifuged to give a sediment, which was then dried and dissolved in water. mRNA was isolated from the whole RNAs as followings. In view of the fact that a poly A chain is attached to the 3′ terminus of mRNA, a polynucleotide having a poly T structure which was immobilized on the surface of latex beads was used to trap the mRNA, and then the mRNA was washed and eluted with spine column (Oligotex-dT30<Super>mRNA Purification Kit, Takara). Reverse transcription of the mRNA was conducted with a reverse transcriptase (Super Script II Reverse Transcriptase; catalogue No. 18064-014, GibcoBRL) using fluorescence-labeled nucleotides to give cDNAs that were introduced with Cy3-dUTP or Cy5-dUTP during the reverse transcription.
The labeled cDNAs were dissolved in TE buffer (10mM Tris-HCl/1 mM EDTA, pH8.0), and the solution was dropped on the DNA chip containing the whole genes of yeast (DNA Chip Research Inc. Japan) so that the cDNAs were hybridized on the DNA chip at 65° C. for over 12 hours. The fluoresces intensity of the DNA chip was read with a scanner, and the ratio relative to the fluorescence intensity resulting from the absence of chemical substance was estimated as the following, which is shown in Tables 1 to 9: […]

## C[S+](C)[O-] [(15), dimethylsulfoxide]
Yeast gene YBR272C
  The level of expressed mRNA in the presence of chemical substance/The level of expressed mRNA in the absence of chemical substance: 0.5
Yeast gene YCR014C
  The level of expressed mRNA in the presence of chemical substance/The level of expressed mRNA in the absence of chemical substance: 0.7
Yeast gene YDL059C
  The level of expressed mRNA in the presence of chemical substance/The level of expressed mRNA in the absence of chemical substance: 0.7
Yeast gene YDR054C
  The level of expressed mRNA in the presence of chemical substance/The level of expressed mRNA in the absence of chemical substance: 1.6
Yeast gene YEL037C
  The level of expressed mRNA in the presence of chemical substance/The level of expressed mRNA in the absence of chemical substance: 1.6
Yeast gene YGL091C
  The level of expressed mRNA in the presence of chemical substance/The level of expressed mRNA in the absence of chemical substance: 0.7
Yeast gene YGL249W
  The level of expressed mRNA in the presence of chemical substance/The level of expressed mRNA in the absence of chemical substance: 0.7
Yeast gene YGR180C
  The level of expressed mRNA in the presence of chemical substance/The level of expressed mRNA in the absence of chemical substance: 1.3
Yeast gene YIL072W
  The level of expressed mRNA in the presence of chemical substance/The level of expressed mRNA in the absence of chemical substance: 1.4
Yeast gene YIL143C
  The level of expressed mRNA in the presence of chemical substance/The level of expressed mRNA in the absence of chemical substance: 1.3
Yeast gene YNL250W
  The level of expressed mRNA in the presence of chemical substance/The level of expressed mRNA in the absence of chemical substance: 1.3
Yeast gene YNL261W
  The level of expressed mRNA in the presence of chemical substance/The level of expressed mRNA in the absence of chemical substance: 0.7
Yeast gene YPL164C
  The level of expressed mRNA in the presence of chemical substance/The level of expressed mRNA in the absence of chemical substance: 1.3

## S=C([S-])NCCNC(=S)[S-].[Zn+2] [(11), zinc N,N′-ethylenebis(dithiocarbamate)]
Yeast gene YAL015C
  The level of expressed mRNA in the presence of chemical substance/The level of expressed mRNA in the absence of chemical substance: 1.4
Yeast gene YAR007C
  The level of expressed mRNA in the presence of chemical substance/The level of expressed mRNA in the absence of chemical substance: 0.9
Yeast gene YBL019W
  The level of expressed mRNA in the presence of chemical substance/The level of expressed mRNA in the absence of chemical substance: 1.0
Yeast gene YBR073W
  The level of expressed mRNA in the presence of chemical substance/The level of expressed mRNA in the absence of chemical substance: 0.5
Yeast gene YBR272C
  The level of expressed mRNA in the presence of chemical substance/The level of expressed mRNA in the absence of chemical substance: 1.1
Yeast gene YCR014C
  The level of expressed mRNA in the presence of chemical substance/The level of expressed mRNA in the absence of chemical substance: 0.8
Yeast gene YDL017W
  The level of expressed mRNA in the presence of chemical substance/The level of expressed mRNA in the absence of chemical substance: 0.8
Yeast gene YDL059C
  The level of expressed mRNA in the presence of chemical substance/The level of expressed mRNA in the absence of chemical substance: 2.0
Yeast gene YDL200C
  The level of expressed mRNA in the presence of chemical substance/The level of expressed mRNA in the absence of chemical substance: 1.2
Yeast gene YDR054C
  The level of expressed mRNA in the presence of chemical substance/The level of expressed mRNA in the absence of chemical substance: 1.9
Yeast gene YDR369C
  The level of expressed mRNA in the presence of chemical substance/The level of expressed mRNA in the absence of chemical substance: 1.1
Yeast gene YEL019C
  The level of expressed mRNA in the presence of chemical substance/The level of expressed mRNA in the absence of chemical substance: 1.2
Yeast gene YEL037C
  The level of expressed mRNA in the presence of chemical substance/The level of expressed mRNA in the absence of chemical substance: 1.0
Yeast gene YER162C
  The level of expressed mRNA in the presence of chemical substance/The level of expressed mRNA in the absence of chemical substance: 0.5
Yeast gene YFL014W
  The level of expressed mRNA in the presence of chemical substance/The level of expressed mRNA in the absence of chemical substance: 5.0
Yeast gene YGL058W
  The level of expressed mRNA in the presence of chemical substance/The level of expressed mRNA in the absence of chemical substance: 0.8
Yeast gene YGL091C
  The level of expressed mRNA in the presence of chemical substance/The level of expressed mRNA in the absence of chemical substance: 2.1
Yeast gene YGL127C
  The level of expressed mRNA in the presence of chemical substance/The level of expressed mRNA in the absence of chemical substance: 1.0
Yeast gene YGL163C
  The level of expressed mRNA in the presence of chemical substance/The level of expressed mRNA in the absence of chemical substance: 0.4
Yeast gene YGL249W
  The level of expressed mRNA in the presence of chemical substance/The level of expressed mRNA in the absence of chemical substance: 0.6
Yeast gene YGR180C
  The level of expressed mRNA in the presence of chemical substance/The level of expressed mRNA in the absence of chemical substance: 1.0
Yeast gene YGR231C
  The level of expressed mRNA in the presence of chemical substance/The level of expressed mRNA in the absence of chemical substance: 1.6
Yeast gene YGR258C
  The level of expressed mRNA in the presence of chemical substance/The level of expressed mRNA in the absence of chemical substance: 0.3
Yeast gene YHR164C
  The level of expressed mRNA in the presence of chemical substance/The level of expressed mRNA in the absence of chemical substance: 0.6
Yeast gene YIL036W
  The level of expressed mRNA in the presence of chemical substance/The level of expressed mRNA in the absence of chemical substance: 1.2
Yeast gene YIL072W
  The level of expressed mRNA in the presence of chemical substance/The level of expressed mRNA in the absence of chemical substance: 1.8
Yeast gene YIL143C
  The level of expressed mRNA in the presence of chemical substance/The level of expressed mRNA in the absence of chemical substance: 1.5
Yeast gene YIL153W
  The level of expressed mRNA in the presence of chemical substance/The level of expressed mRNA in the absence of chemical substance: 1.0
Yeast gene YIR002C
  The level of expressed mRNA in the presence of chemical substance/The level of expressed mRNA in the absence of chemical substance: 0.8
Yeast gene YJL026W
  The level of expressed mRNA in the presence of chemical substance/The level of expressed mRNA in the absence of chemical substance: 1.3
Yeast gene YJR046W
  The level of expressed mRNA in the presence of chemical substance/The level of expressed mRNA in the absence of chemical substance: 0.6
Yeast gene YJR052W
  The level of expressed mRNA in the presence of chemical substance/The level of expressed mRNA in the absence of chemical substance: 1.1
Yeast gene YKL145W
  The level of expressed mRNA in the presence of chemical substance/The level of expressed mRNA in the absence of chemical substance: 1.8
Yeast gene YLR103C
  The level of expressed mRNA in the presence of chemical substance/The level of expressed mRNA in the absence of chemical substance: 0.9
Yeast gene YLR233C
  The level of expressed mRNA in the presence of chemical substance/The level of expressed mRNA in the absence of chemical substance: 0.8
Yeast gene YLR288C
  The level of expressed mRNA in the presence of chemical substance/The level of expressed mRNA in the absence of chemical substance: 1.4
Yeast gene YML032C
  The level of expressed mRNA in the presence of chemical substance/The level of expressed mRNA in the absence of chemical substance: 1.0
Yeast gene YML058W
  The level of expressed mRNA in the presence of chemical substance/The level of expressed mRNA in the absence of chemical substance: 3.3
Yeast gene YMR035W
  The level of expressed mRNA in the presence of chemical substance/The level of expressed mRNA in the absence of chemical substance: 1.5
Yeast gene YMR072W
  The level of expressed mRNA in the presence of chemical substance/The level of expressed mRNA in the absence of chemical substance: 1.9
Yeast gene YMR096W
  The level of expressed mRNA in the presence of chemical substance/The level of expressed mRNA in the absence of chemical substance: 1.5
Yeast gene YMR284W
  The level of expressed mRNA in the presence of chemical substance/The level of expressed mRNA in the absence of chemical substance: 1.1
Yeast gene YNL213C
  The level of expressed mRNA in the presence of chemical substance/The level of expressed mRNA in the absence of chemical substance: 1.5
Yeast gene YNL250W
  The level of expressed mRNA in the presence of chemical substance/The level of expressed mRNA in the absence of chemical substance: 1.0
Yeast gene YNL261W
  The level of expressed mRNA in the presence of chemical substance/The level of expressed mRNA in the absence of chemical substance: 0.8
Yeast gene YNL312W
  The level of expressed mRNA in the presence of chemical substance/The level of expressed mRNA in the absence of chemical substance: 1.4
Yeast gene YOL043C
  The level of expressed mRNA in the presence of chemical substance/The level of expressed mRNA in the absence of chemical substance: 1.2
Yeast gene YOR005C
  The level of expressed mRNA in the presence of chemical substance/The level of expressed mRNA in the absence of chemical substance: 1.2
Yeast gene YOR386W
  The level of expressed mRNA in the presence of chemical substance/The level of expressed mRNA in the absence of chemical substance: 1.4
Yeast gene YPL022W
  The level of expressed mRNA in the presence of chemical substance/The level of expressed mRNA in the absence of chemical substance: 0.8
Yeast gene YPL164C
  The level of expressed mRNA in the presence of chemical substance/The level of expressed mRNA in the absence of chemical substance: 1.1
Yeast gene YPL194W
  The level of expressed mRNA in the presence of chemical substance/The level of expressed mRNA in the absence of chemical substance: 0.9
Yeast gene YPR025C
  The level of expressed mRNA in the presence of chemical substance/The level of expressed mRNA in the absence of chemical substance: 0.9
